# Target: hFXR (Homo sapiens (Human), UniProt Q96RI1)
# Assay: In Vitro FXR Assay (TK)
# Assay type: cell-based
# Conditions: CV-1 cells transfected with hFXR, hRXR, TK-ECRE-luc and pCMX-YFP; incubated 18 hrs; luminescence; maximum efficacy <25% of the Fexarmine control classified as '+'
# Experimental: Example B-1: In Vitro FXR Assay (TK)
# CV-1 cells were seeded at a density of 2,000,000 cells in a T175 flask with DMEM+10% charcoal double-stripped FBS and incubated at 37° C. in 5% CO2 for 18 h (O/N).
# After 18 h of incubation, the medium in the T175 flask was changed with fresh DMEM+10% charcoal super-stripped serum. In a polypropylene tube, 2500 μL OptiMEM (Life Technologies, Cat #31985-062) was combined with expression plasmids for hFXR, hRXR, TK-ECRE-luc and pCMX-YFP. The tube was then briefly vortexed and incubated at room temperature for 5 minutes. Transfection reagent (X-tremeGENE HP from Roche, Cat #06 366 236 001) was added to the OptiMEM/plasmid mixture vortexed and incubated at room temperature for 20 minutes. Following incubation, the transfection reagent/DNA mixture complex was added to cells in the T175 flask and the cells were incubated at 37° C. in 5% CO2 for 18 h (O/N).
# Compounds were serially diluted in DMSO and added to transfected CV-1 cells. The cells were then incubated for 18 hrs. The next day cells were lysed and examined for luminescence.
# Chain of hFXR (Q96RI1 whole entry): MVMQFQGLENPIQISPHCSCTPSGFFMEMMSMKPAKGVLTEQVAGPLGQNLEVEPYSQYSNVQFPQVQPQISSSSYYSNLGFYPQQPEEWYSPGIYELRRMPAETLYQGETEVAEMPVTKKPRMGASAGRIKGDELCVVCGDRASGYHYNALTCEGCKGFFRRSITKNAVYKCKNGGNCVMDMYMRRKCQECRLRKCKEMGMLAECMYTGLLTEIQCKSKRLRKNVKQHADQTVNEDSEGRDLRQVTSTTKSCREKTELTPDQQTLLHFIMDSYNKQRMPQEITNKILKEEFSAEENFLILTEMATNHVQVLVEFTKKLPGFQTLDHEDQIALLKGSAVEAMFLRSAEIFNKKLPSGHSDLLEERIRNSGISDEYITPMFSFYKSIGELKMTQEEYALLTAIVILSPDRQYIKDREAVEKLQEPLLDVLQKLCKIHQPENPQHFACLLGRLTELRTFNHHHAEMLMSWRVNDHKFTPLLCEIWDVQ
# Chain of hFXR (P19793 whole entry partner): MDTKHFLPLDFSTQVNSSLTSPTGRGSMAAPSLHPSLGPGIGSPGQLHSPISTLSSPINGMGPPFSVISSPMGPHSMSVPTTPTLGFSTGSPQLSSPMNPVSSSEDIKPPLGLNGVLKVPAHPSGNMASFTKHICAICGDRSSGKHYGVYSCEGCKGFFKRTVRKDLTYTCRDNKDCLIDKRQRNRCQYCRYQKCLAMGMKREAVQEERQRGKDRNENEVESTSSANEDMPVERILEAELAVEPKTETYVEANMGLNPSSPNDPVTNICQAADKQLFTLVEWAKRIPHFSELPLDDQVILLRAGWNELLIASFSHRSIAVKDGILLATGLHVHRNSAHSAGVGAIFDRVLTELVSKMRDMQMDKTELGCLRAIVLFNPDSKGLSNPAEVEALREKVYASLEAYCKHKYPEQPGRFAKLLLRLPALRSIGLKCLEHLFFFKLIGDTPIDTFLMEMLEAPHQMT
row,Structure (SMILES),EC50 [nM]
1,"COc1ccc([C@H]2CC[C@H](CN(c3cccc(-c4cnn(C5CC5)c4)c3)C(=O)[C@H]3CC[C@H](O)CC3)CC2)nc1C#N [Compound 5.05, trans-N-((trans-4-(6-Cyano-5-methoxypyridin-2-yl)cyclohexyl)methyl)-N-(3-(1-cyclopropyl-1H-pyrazol-4-yl)phenyl)-4-hydroxycyclohexanecarboxamide]",≤ 250
2,"O=C([C@H]1CC[C@H](O)CC1)N(C[C@H]1CC[C@H](c2ccc3c(c2)OCO3)CC1)c1cccc(-c2cnn(C3CC3)c2)c1 [Compound 5.06, trans-N-((trans-4-(Benzo[d][1,3]dioxol-5-yl)cyclohexyl)methyl)-N-(3-(1-cyclopropyl-1H-pyrazol-4-yl)phenyl)-4-hydroxycyclohexanecarboxamide]",≤ 250
3,"COc1ccc([C@H]2CC[C@H](CN(c3cccc(-c4cnn(C(C)C)c4)c3)C(=O)[C@H]3CC[C@H](O)CC3)CC2)nc1C [Compound 5.07, trans-4-Hydroxy-N-(3-(1-isopropyl-1H-pyrazol-4-yl)phenyl)-N-((trans-4-(5-methoxy-6-methylpyridin-2-yl)cyclohexyl)methyl)cyclohexanecarboxamide]",≤ 250
4,"COc1ccc([C@H]2CC[C@H](CN(c3cccc(-c4cnn(C(C)(C)C)c4)c3)C(=O)[C@H]3CC[C@H](O)CC3)CC2)cc1C [Compound 5.08, trans-N-(3-(1-(tert-Butyl)-1H-pyrazol-4-yl)phenyl)-4-hydroxy-N-((trans-4-(4-methoxy-3-methylphenyl)cyclohexyl)methyl)cyclohexanecarboxamide]",≤ 250
5,"COc1ccc([C@H]2CC[C@H](CN(c3cc(-c4cnn(C5CC5)c4)ccn3)C(=O)[C@H]3CC[C@H](O)CC3)CC2)nc1C [Compound 5.09, trans-N-(4-(1-Cyclopropyl-1H-pyrazol-4-yl)pyridin-2-yl)-4-hydroxy-N-((trans-4-(5-methoxy-6-methylpyridin-2-yl)cyclohexyl)methyl)cyclohexanecarboxamide]",250 to 1000
6,"COc1ncc([C@H]2CC[C@H](CN(c3cccc(-c4cnn(C5CC5)c4)c3)C(=O)[C@H]3CC[C@H](O)CC3)CC2)cc1Cl [Compound 5.10, trans-N-((trans-4-(5-chloro-6-methoxypyridin-3-yl)cyclohexyl)methyl)-N-(3-(1-cyclopropyl-1H-pyrazol-4-yl)phenyl)-4-hydroxycyclohexanecarboxamide]",≤ 250
7,"COc1ccc([C@H]2CC[C@H](CN(c3cc(-c4cnn(C(C)C)c4)ccn3)C(=O)[C@H]3CC[C@H](O)CC3)CC2)cc1C [Compound 5.11, trans-4-Hydroxy-N-(4-(1-isopropyl-1H-pyrazol-4-yl)pyridin-2-yl)-N-((trans-4-(4-methoxy-3-methylphenyl)cyclohexyl)methyl)cyclohexanecarboxamide]",≤ 250
8,"COc1ncc([C@H]2CC[C@H](CN(c3cccc(-c4cnn(C5CC5)c4)c3)C(=O)[C@H]3CC[C@H](O)CC3)CC2)cc1C [Compound 5.12, trans-N-(3-(1-Cyclopropyl-1H-pyrazol-4-yl)phenyl)-4-hydroxy-N-((trans-4-(6-methoxy-5-methylpyridin-3-yl)cyclohexyl)methyl)cyclohexanecarboxamide]",≤ 250
9,"COc1ccc([C@H]2CC[C@H](CN(c3cc(-c4cnn(C5CC5)c4)ccn3)C(=O)[C@H]3CC[C@H](O)CC3)CC2)cc1C#N [Compound 5.13, trans-N-((trans-4-(3-Cyano-4-methoxyphenyl)cyclohexyl)methyl)-N-(4-(1-cyclopropyl-1H-pyrazol-4-yl)pyridin-2-yl)-4-hydroxycyclohexanecarboxamide]",≤ 250
10,"COc1ccc([C@H]2CC[C@H](CN(c3cc(-c4cnn(C(C)C)c4)ccn3)C(=O)[C@H]3CC[C@H](O)CC3)CC2)cc1C#N [Compound 5.14, trans-N-((trans-4-(3-Cyano-4-methoxyphenyl)cyclohexyl)methyl)-4-hydroxy-N-(4-(1-isopropyl-1H-pyrazol-4-yl)pyridin-2-yl)cyclohexanecarboxamide]",≤ 250
11,"COc1ccc([C@H]2CC[C@H](CN(c3cccc(-c4cnn(C(C)(C)C)c4)c3)C(=O)[C@H]3CC[C@H](O)CC3)CC2)nc1C [Compound 5.15, trans-N-(3-(1-(tert-Butyl)-1H-pyrazol-4-yl)phenyl)-4-hydroxy-N-((trans-4-(5-methoxy-6-methylpyridin-2-yl)cyclohexyl)methyl)cyclohexanecarboxamide]",≤ 250
12,"CCn1cc([C@H]2CC[C@H](CN(c3cccc(-c4cnn(C5CC5)c4)c3)C(=O)[C@H]3CC[C@H](O)CC3)CC2)cn1 [Compound 5.16, trans-N-(3-(1-Cyclopropyl-1H-pyrazol-4-yl)phenyl)-N-((trans-4-(1-ethyl-1H-pyrazol-4-yl)cyclohexyl)methyl)-4-hydroxycyclohexanecarboxamide]",250 to 1000
13,"COc1ccc([C@H]2CC[C@H](CN(c3cccc(-c4cnn(C5CCC5)c4)c3)C(=O)[C@H]3CC[C@H](O)CC3)CC2)nc1C [Compound 5.17, trans-N-(3-(1-Cyclobutyl-1H-pyrazol-4-yl)phenyl)-4-hydroxy-N-((trans-4-(5-methoxy-6-methylpyridin-2-yl)cyclohexyl)methyl)cyclohexanecarboxamide]",≤ 250
14,"COc1cnc([C@H]2CC[C@H](CN(c3cccc(-c4cnn(C5CC5)c4)c3)C(=O)[C@H]3CC[C@H](O)CC3)CC2)cc1C [Compound 5.18, trans-N-(3-(1-Cyclopropyl-1H-pyrazol-4-yl)phenyl)-4-hydroxy-N-((trans-4-(5-methoxy-4-methylpyridin-2-yl)cyclohexyl)methyl)cyclohexanecarboxamide]",250 to 1000
15,"COc1ccc([C@H]2CC[C@H](CN(c3cc(-c4cnn(C(C)C)c4)ccn3)C(=O)[C@H]3CC[C@H](O)CC3)CC2)nc1C [Compound 5.19, trans-4-Hydroxy-N-(4-(1-isopropyl-1H-pyrazol-4-yl)pyridin-2-yl)-N-((trans-4-(5-methoxy-6-methylpyridin-2-yl)cyclohexyl)methyl)cyclohexanecarboxamide]",≤ 250
16,"COc1ccc([C@H]2CC[C@H](CN(c3cc(-c4cnn(C(C)C)c4)ccn3)C(=O)[C@H]3CC[C@H](O)CC3)CC2)nc1C#N [Compound 5.20, trans-N-((trans-4-(6-Cyano-5-methoxypyridin-2-yl)cyclohexyl)methyl)-4-hydroxy-N-(4-(1-isopropyl-1H-pyrazol-4-yl)pyridin-2-yl)cyclohexanecarboxamide]",250 to 1000
17,"Cn1ccc2cc([C@H]3CC[C@H](CN(c4cccc(-c5cnn(C6CC6)c5)c4)C(=O)[C@H]4CC[C@H](O)CC4)CC3)ncc21 [Compound 5.21, trans-N-(3-(1-Cyclopropyl-1H-pyrazol-4-yl)phenyl)-4-hydroxy-N-((trans-4-(1-methyl-1H-pyrrolo[2,3-c]pyridin-5-yl)cyclohexyl)methyl)cyclohexanecarboxamide]",≥ 1000
18,"COc1ccc([C@H]2CC[C@H](CN(c3cc(-c4cnn(C5CC5)c4)ccn3)C(=O)[C@H]3CC[C@H](O)CC3)CC2)nc1C#N [Compound 5.22, trans-N-((trans-4-(6-Cyano-5-methoxypyridin-2-yl)cyclohexyl)methyl)-N-(4-(1-cyclopropyl-1H-pyrazol-4-yl)pyridin-2-yl)-4-hydroxycyclohexanecarboxamide]",250 to 1000
19,"COc1ccc([C@H]2CC[C@H](CN(c3cccc(-c4cnn(C(C)C)c4)c3)C(=O)[C@H]3CC[C@H](O)CC3)CC2)nc1C#N [Compound 5.23, trans-N-((trans-4-(6-Cyano-5-methoxypyridin-2-yl)cyclohexyl)methyl)-4-hydroxy-N-(3-(1-isopropyl-1H-pyrazol-4-yl)phenyl)cyclohexanecarboxamide]",≤ 250
20,"COc1ccc([C@H]2CC[C@H](CN(C(=O)C3CCCCC3)c3cccc(-c4cnn(C5CC5)c4)c3)CC2)cc1C [Compound 5.24, N-(3-(1-Cyclopropyl-1H-pyrazol-4-yl)phenyl)-N-((trans-4-(4-methoxy-3-methylphenyl)cyclohexyl)methyl)cyclohexanecarboxamide]",≤ 250
21,"COc1ccc(C2CCC(CN(c3cccc(-c4cnn(C5CC5)c4)c3)C(=O)[C@H]3CC[C@@H](O)CC3)CC2)cc1C (stereo partly drawn) [Compound 5.25, cis-N-(3-(1-Cyclopropyl-1H-pyrazol-4-yl)phenyl)-4-hydroxy-N-((4-(4-methoxy-3-methylphenyl)cyclohexyl)methyl)cyclohexanecarboxamide]",≤ 250
22,"COc1ccc([C@H]2CC[C@H](CN(c3cc(-c4cnn(C5CC5)c4)cc(C)n3)C(=O)[C@H]3CC[C@H](O)CC3)CC2)cc1C [Compound 5.26, trans-N-(4-(1-cyclopropyl-1H-pyrazol-4-yl)-6-methylpyridin-2-yl)-4-hydroxy-N-((trans-4-(4-methoxy-3-methylphenyl)cyclohexyl)methyl)cyclohexanecarboxamide]",250 to 1000
23,"COc1ccc([C@H]2CC[C@H](CN(c3cccc(-c4cnn(C(C)C)c4)c3)C(=O)[C@H]3CC[C@](C)(O)CC3)CC2)cc1C [Compound 5.27, (1r,4r)-4-Hydroxy-N-(3-(1-isopropyl-1H-pyrazol-4-yl)phenyl)-N-((trans-4-(4-methoxy-3-methylphenyl)cyclohexyl)methyl)-4-methylcyclohexanecarboxamide]",≤ 250
